The source of these data is US5391540A, “Substituted pyridine compounds” (Rohm and Haas Company, priority 1993, dated 1995).

Holding throughout (assay): Pre-emergent herbicidal activity (Table A)
What all share (format): in vivo

For one assay, the system named is Yellow Nutsedge. Particulars: Cyperus, pre-emergence, Yens, 11.2 kg/ha, 10-14 days, read-out: herbicidal rating (% inhibition). Put shortly: (§1)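 Percent inhibition per species, scored on a rating scale, after pre-emergent soil incorporation: test compound in acetone or water carrier mixed into cover soil, layered over seeded topsoil or vegetative propagules.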
In a further assay the test system is Downy Brome. Particulars: Bromus tectorum, pre-emergence, Dobr, 11.2 kg/ha, 10-14 days, read-out: herbicidal rating (% inhibition). In outline:
as §1

In a further assay the test system is Velvetleaf. Particulars: Abutilon theophrasti, pre-emergence, Vele, 11.2 kg/ha, 10-14 days, read-out: herbicidal rating (% inhibition). In outline:
as §1

Another assay deals with Cocklebur. Particulars: Xanthium strumarium, pre-emergence, Cobu, 11.2 kg/ha, 10-14 days, read-out: herbicidal rating (% inhibition). Put shortly: as §1
The subject of the next assay is Pennsylvania Smartweed. Particulars: pre-emergence, Pesw, 11.2 kg/ha, 10-14 days, read-out: herbicidal rating (% inhibition). In outline: as §1
A further assay relates to Morningglory. Conditions: Ipomoea, pre-emergence, Mogl, 11.2 kg/ha, 10-14 days, read-out: herbicidal rating (% inhibition). In outline:
as §1

In another assay the test system is Barnyardgrass. Conditions: Echinochloa crus-galli, pre-emergence, Bygr, 11.2 kg/ha, 10-14 days, read-out: herbicidal rating (% inhibition). In outline: as §1
In a further assay the test system is Quackgrass. Particulars: pre-emergence, Rhqg, 11.2 kg/ha, 10-14 days, read-out: herbicidal rating (% inhibition). Put shortly: as §1
The next assay deals with Common Lambsquarters. Conditions: Chenopodium album, pre-emergence, Colq, 11.2 kg/ha, 10-14 days, read-out: herbicidal rating (% inhibition). In outline: as §1
The subject of the next assay is Canada thistle. Conditions: Cirsium arvense, pre-emergence, Cath, 11.2 kg/ha, 10-14 days, read-out: herbicidal rating (% inhibition). In outline:
as §1

Another assay has as its system Rhizome Johnsongrass. Particulars: Sorghum halepense, pre-emergence, Rhjg, 11.2 kg/ha, 10-14 days, read-out: herbicidal rating (% inhibition). In outline: as §1
For a further assay, the system named is Seedling Johnsongrass. Particulars: Sorghum halepense, pre-emergence, Sejg, 11.2 kg/ha, 10-14 days, read-out: herbicidal rating (% inhibition). How it is done:
(§2) Tables A and B summarize results of tests conducted to determine the pre-emergent herbicidal activity of the compounds of this invention. The herbicidal ratings used in Tables A and B were assigned according to a scale based on the percent inhibition of each plant species. The herbicide rating symbols in Tables A and B are defined as follows: […]
(§3) One set of pre-emergent tests was conducted as follows:
(§4) Topsoil was placed in a pan and compacted to a depth of 0.95 to 1.27 cm. from the top of the pan. A predetermined number of seeds of each of several monocotyledonous and dicotyledonous annual plant species and/or vegetative propagules of various perennial plant species were placed on top of the soil. The soil required to level fill a pan after seeding or adding vegetative propagules was weighed into another pan. A known amount of the test compound dissolved or suspended in an organic solvent or water and applied in acetone or water as a carrier was thoroughly mixed with this cover soil, and the herbicide/soil mixture was used as a cover layer for the previously prepared pan. In Table A below the amounts of active ingredient were all equivalent to an application rate of 11.2 kilograms/hectare (kg/ha). After treatment, the pans were moved to a greenhouse bench where they were watered as needed to give adequate moisture for germination and growth.
(§5) Approximately 10-14 days (usually 11 days) after planting and treating, the plants were observed and the results recorded.
(§6) The plant species usually regarded as weeds which were utilized in one set of pre-emergent activity tests, the data for which are shown in Table A, are identified by letter headings printed diagonally above the columns according to the following legend: […]

For a further assay, the system named is Annual Bluegrass. Particulars: pre-emergence, Anbg, 11.2 kg/ha, 10-14 days, read-out: herbicidal rating (% inhibition). How it is done:
as §2, §3, §4, §5, §6

With `COC(=O)c1c(OC)nc(C(F)(F)F)c(C2=NC(C)CS2)c1CC(C)C` (centres unmarked) [Compound 74, 3-pyridinecarboxylic acid, 5-(4,5-dihydro-4-methy1-2-thiazolyl)-2-methoxy-4-(2-methylpropyl)-6-(trifluoromethyl)-, methyl ester], the inhibition (commonly the percentage by which the read-out fell short of the control) at 11200 g/ha in the assay with Yellow Nutsedge was in the range of 25 to 49%; in the assay with Downy Brome, 75 to 100%; with Velvetleaf it was 75 to 100%; in the assay with Cocklebur, 75 to 100%; in the assay with Pennsylvania Smartweed, 75 to 100%; in the assay with Morningglory, 75 to 100%. The inhibition at 11200 g/ha in the assay on Barnyardgrass, in the assay on Quackgrass, in the assay with Common Lambsquarters, with Canada thistle and in the assay with Rhizome Johnsongrass was 75 to 100% each time.

On to `COC(=O)c1c(OC)nc(C(F)(F)F)c(C2=NC(C)(C)CS2)c1CC(C)C` [Compound 75, 3-pyridinecarboxylic acid, 5-(4,5-dihydro-4,4-dimethy1-2-thiazolyl)-2-methoxy-4-(2-methylpropyl)-6-(trifluoromethyl)-, methyl ester], for which the inhibition at 11200 g/ha in the assay with Yellow Nutsedge fell in the range of 75 to 100%; in the assay on Downy Brome it was 75 to 100%; in the assay with Velvetleaf it was 75 to 100%; in the assay on Cocklebur, 50 to 74%; in the assay on Pennsylvania Smartweed, 75 to 100%; in the assay on Morningglory, 75 to 100%. In addition, the inhibition at 11200 g/ha with Barnyardgrass lay within 75 to 100%; with Quackgrass, 75 to 100%; in the assay on Common Lambsquarters, 75 to 100%; with Canada thistle, 75 to 100%; with Rhizome Johnsongrass, 25 to 49%.

For the compound `COC=Nc1c(C(F)(F)F)nc(OC)c(C(=O)OC)c1CC(C)C` [Compound 76, 3-pyridinecarboxylic acid, 2-methoxy-5-[(methoxymethylene)amino]-4-(2-methylpropyl)-6-(trifluoromethyl)-, methyl ester], the inhibition at 11200 g/ha is 50 to 74% in the assay with Yellow Nutsedge; 75 to 100% in the assay on Downy Brome; 75 to 100% in the assay with Velvetleaf; 0 to 24% with Cocklebur; 75 to 100% with Pennsylvania Smartweed; 75 to 100% in the assay with Morningglory. Further, the inhibition at 11200 g/ha fell in the range of 75 to 100% with Barnyardgrass; 75 to 100% in the assay on Quackgrass; 75 to 100% in the assay on Common Lambsquarters; 75 to 100% in the assay with Canada thistle; 50 to 74% in the assay with Rhizome Johnsongrass.

`CCSC=Nc1c(C(F)(F)F)nc(OC)c(C(=O)OC)c1CC(C)C` [Compound 78, 3-pyridinecarboxylic acid, 5-[[(ethylthio)methylene]amino]-2-methoxy-4-(2-methylpropyl)-6-(trifluoromethyl)-, methyl ester]: the inhibition at 11200 g/ha was 0 to 24% in the assay with Yellow Nutsedge; 75 to 100% in the assay with Downy Brome; 75 to 100% in the assay with Velvetleaf; 0 to 24% with Cocklebur; 75 to 100% in the assay with Pennsylvania Smartweed; 75 to 100% in the assay with Morningglory. In addition, the inhibition at 11200 g/ha fell in the range of 75 to 100% in the assay with Barnyardgrass; 50 to 74% in the assay with Quackgrass; 75 to 100% with Common Lambsquarters; 75 to 100% in the assay on Canada thistle; 0 to 24% with Rhizome Johnsongrass.

As for `C#CCOc1nc(C(F)(F)F)c(C(=O)OC)c(CC(C)C)c1C(=O)OC` [Compound 83, 3,5-pyridinedicarboxylic acid, 4-(2-methylpropyl)-2-(2-propynyloxy)-6-(trifluoromethyl)-, dimethyl ester], the inhibition at 11200 g/ha in the assay with Yellow Nutsedge was 0 to 24%; in the assay on Downy Brome, 75 to 100%; with Velvetleaf, 75 to 100%; with Cocklebur, 0 to 24%; in the assay on Pennsylvania Smartweed, 75 to 100%; with Morningglory, 75 to 100%. Besides, the inhibition at 11200 g/ha in the assay with Barnyardgrass lay in the range of 75 to 100%; in the assay on Quackgrass, 75 to 100%; in the assay on Common Lambsquarters, 75 to 100%; in the assay on Canada thistle it was 25 to 49%; in the assay on Rhizome Johnsongrass, 25 to 49%.

`COC(=O)c1c(OC)nc(C(F)(F)F)c(C(=O)OC)c1C` [Compound 86, 3,5-pyridinedicarboxylic acid, 2-methoxy-4-methy1-6-(trifluoromethyl)-, dimethyl ester]: the inhibition at 11200 g/ha with Yellow Nutsedge is 0 to 24%; in the assay on Downy Brome, 75 to 100%; in the assay on Velvetleaf, 50 to 74%; in the assay on Cocklebur it was 0 to 24%; in the assay on Pennsylvania Smartweed, 50 to 74%; in the assay with Morningglory, 75 to 100%. The inhibition at 11200 g/ha with Barnyardgrass was 75 to 100%; in the assay on Quackgrass it was 75 to 100%; in the assay on Common Lambsquarters, 75 to 100%; in the assay on Canada thistle, 0 to 24%; with Rhizome Johnsongrass, 75 to 100%.

Turning to `COC(=O)c1c(OC)nc(C(F)(F)F)c(C(=O)OC)c1CSC` [Compound 89, 3,5-pyridinedicarboxylic acid, 2-methoxy-4-[(methylthio)methyl]-6-(trifluoromethyl)-, dimethyl ester], the inhibition at 11200 g/ha in the assay with Yellow Nutsedge was 0 to 24%; in the assay with Downy Brome, 25 to 49%; in the assay on Velvetleaf, 75 to 100%; with Cocklebur, 25 to 49%; in the assay on Pennsylvania Smartweed, 75 to 100%; with Morningglory, 75 to 100%. Besides, the inhibition at 11200 g/ha with Barnyardgrass was in the range of 75 to 100%; in the assay with Quackgrass it was 25 to 49%; in the assay with Common Lambsquarters, 75 to 100%; in the assay on Canada thistle, 75 to 100%; in the assay with Rhizome Johnsongrass, 0 to 24%.

With `CCCc1c(C(=O)OC)c(OC)nc(C(F)(F)F)c1C(=O)OC` [Compound 91, 3,5-pyridinedicarboxylic acid, 2-methoxy-4-propy1-6-(trifluoromethyl)-, dimethyl ester], the inhibition at 11200 g/ha in the assay on Yellow Nutsedge was in the range of 75 to 100%; in the assay with Downy Brome, 75 to 100%; with Velvetleaf, 75 to 100%; with Cocklebur, 25 to 49%; in the assay with Pennsylvania Smartweed, 75 to 100%; in the assay on Morningglory it was 75 to 100%. In addition, the inhibition at 11200 g/ha in the assay with Barnyardgrass, in the assay on Quackgrass, in the assay with Common Lambsquarters, in the assay with Canada thistle and in the assay on Rhizome Johnsongrass was 75 to 100% throughout.

`COC(=O)c1c(OC)nc(C(F)(F)F)c(C(=O)OC)c1CC1CC1` [Compound 92, 3,5-pyridinedicarboxylic acid, 4-(cyclopropylmethyl)-2-methoxy-6-(trifluoromethyl)-, dimethyl ester]: the inhibition at 11200 g/ha in the assay with Yellow Nutsedge lay in the range of 75 to 100%; with Downy Brome, 75 to 100%; with Velvetleaf, 75 to 100%; with Cocklebur, 50 to 74%; in the assay with Pennsylvania Smartweed, 75 to 100%; with Morningglory it was 75 to 100%. The inhibition at 11200 g/ha with Barnyardgrass fell in the range of 75 to 100%; in the assay with Quackgrass, 75 to 100%; in the assay on Common Lambsquarters, 75 to 100%; with Canada thistle, 75 to 100%; in the assay with Rhizome Johnsongrass it was 0 to 24%.

Take `COC(=O)c1c(OC)nc(C(F)(F)F)c(NC(=O)CCCBr)c1CC(C)C` [Compound 120, 3-pyridinecarboxylic acid, 5-[(4-bromo-1-oxobutyl)amino]-2-methoxy-4-(2-methylpropyl)-6-(trifluoromethyl)-, methyl ester]: the inhibition at 11200 g/ha lay within 75 to 100% with Seedling Johnsongrass; 75 to 100% with Annual Bluegrass; 50 to 74% in the assay with Yellow Nutsedge; 75 to 100% in the assay with Downy Brome; 75 to 100% in the assay with Velvetleaf; 75 to 100% in the assay on Cocklebur. Also, the inhibition at 11200 g/ha in the assay with Morningglory and with Barnyardgrass was 75 to 100% each time.
